Experimental data reported in patent US20160243223A1, “METHODS FOR TREATING CANCERS COMPRISING K-RAS MUTATIONS” (OncoMed Pharmaceuticals, Inc., priority 2009, published 2016).

B1: 21M18 H7L2: humanized form of the murine 21M18 antibody; anti-human DLL4 antibody (antibody, V domains shown)
VH: QVQLVQSGAEVKKPGASVKISCKASGYSFTAYYIHWVKQAPGQGLEWIGYISSYNGATNYNQKFKGRVTFTTDTSTSTAYMELRSLRSDDTAVYYCARDYDYDVGMDYWGQGTLVTVSS
VL: DIVMTQSPDSLAVSLGERATISCRASESVDNYGISFMKWFQQKPGQPPKLLIYAASNQGSGVPDRFSGSGSGTDFTLTISSLQAEDVAVYYCQQSKEVPWTFGGGTKVEIK

Assays:
C9 colon tumor = C9 colon tumor recurrence xenograft model; type: in vivo, NOD/SCID mice; conditions: treatment from 2 days after injection; antibody 10 mg/kg twice a week, irinotecan […] once a week, intraperitoneally; FIG. 4
Protocol: Starting 2 days after injection, mice were treated with irinotecan alone (Δ) or anti-human DLL4 antibody (21M18 […]) plus irinotecan (▾). Treatment in both groups was discontinued on the indicated day and tumor growth was monitored for an additional period of time. […] Both antibodies and chemotherapeutic agents were administered intraperitoneally. Tumor growth was measured with electronic calipers at the indicated time points.

PN8 pancreatic tumor = PN8 pancreatic tumor recurrence xenograft model after gemcitabine; type: in vivo, NOD/SCID mice; conditions: after gemcitabine 100 mg/kg once a week for 4 weeks; antibodies 10 mg/kg once a week from day 53; vs control antibody; FIG. 5
Protocol: The PN8 pancreatic tumor was determined to have a K-ras mutation, a glycine to aspartic acid mutation at codon 12, that is a known activating mutation. Anti-DLL4 antibodies were tested for efficacy in this xenograft tumor model. Dissociated PN8 pancreatic tumor cells (10,000 cells) were injected subcutaneously into the flanks of 6-8 week old NOD/SCID mice. Tumors were allowed to grow for 28 days until they reached an average volume of 173 mm^3. […] On day 53, the gemcitabine treatments were stopped and antibody treatments initiated. Mice were treated with control antibody ([…]), anti-mouse DLL4 antibody (21R30) (▾), anti-human DLL4 antibody (21M18 H7L2) (▴), or a combination of anti-mouse DLL4 antibody and anti-human DLL4 antibody (21R30+21M18 H7L2) (□). […] Both antibodies and chemotherapeutic agents were administered intraperitoneally. Tumor growth was measured with electronic calipers at the indicated time points.

Molecule	tumor growth after cessation of treatment (C9 colon tumor)	tumor recurrence after chemotherapy (PN8 pancreatic tumor)
CCc1c2c(nc3ccc(OC(=O)N4CCC(N5CCCCC5)CC4)cc13)-c1cc3c(c(=O)n1C2)COC(=O)[C@]3(O)CC [Irinotecan, irinotecan]	tumor growth progressed	
B1		more substantial effect in inhibiting and/or delaying tumor re-growth
